These results are taken from the supplement of paper PMC10307832.

The structures appear in SMILES notation.

The test system of one experiment is SK-LU-1. Kind of experiment: relative viability (nuclei count vs DMSO), 5 days (fraction); higher = more cells survive. To be noted: first compound 6.325 µM. A digest of the protocol:
(§1)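 Nuclei were stained with Hoechst during a one-step fixation (final 0.05% Triton X-100, 1% formaldehyde, 1 ug/ml Hoechst) carried out 5 days after dosing, then counted on 4× images. The cells, lung cancer lines in 1536-well plates, had been dosed by pin tool the day after seeding with one drug alone or a fixed anchor-drug dose plus five library-drug doses (not always all listed) in √10 steps. Relative viability is the nuclei count in treated wells divided by that in vehicle wells, and each value is the median of duplicate plates.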
`COCC1(CO)C(=O)C2CCN1CC2` (configuration not stated) [PRIMA-1MET] + COc1cc2c(Oc3ccc(NC(=O)C4(C(=O)Nc5ccc(F)cc5)CC4)cc3F)ccnc2cc1OCCCN1CCOCC1 [Foretinib] (partner 0.25 µM) displayed a relative viability of 0.834.

`COCC1(CO)C(=O)C2CCN1CC2` (configuration not stated) [PRIMA-1MET] + Cc1nc(NC(=O)N2CCC[C@H]2C(N)=O)sc1-c1ccnc(C(C)(C)C(F)(F)F)c1 [Alpelisib] (partner 2 µM) gave a relative viability of 0.99.

Still in this experiment, the particulars now being: first compound 20 µM.
In turn, `COCC1(CO)C(=O)C2CCN1CC2` (configuration not stated) [PRIMA-1MET] + CS(=O)(=O)N1CCN(Cc2cc3nc(-c4cccc5[nH]ncc45)nc(N4CCOCC4)c3s2)CC1 [Pictilisib] (partner 1 µM) returned a relative viability of 0.142.

Take `COCC1(CO)C(=O)C2CCN1CC2` (configuration not stated) [PRIMA-1MET] + CS(=O)(=O)CCNCc1ccc(-c2ccc3ncnc(Nc4ccc(OCc5cccc(F)c5)c(Cl)c4)c3c2)o1 [Lapatinib] (partner 2 µM): the relative viability came out at 0.235.

Regarding `COCC1(CO)C(=O)C2CCN1CC2` (configuration not stated) [PRIMA-1MET] + C[C@]1(O)C[C@@H](c2nc(-c3ccc4ccc(-c5ccccc5)nc4c3)c3c(N)nccn32)C1 [Linsitinib] (partner 1 µM), the relative viability was 0.458.

`COCC1(CO)C(=O)C2CCN1CC2` (configuration not stated) [PRIMA-1MET] + COc1cc2c(Oc3ccc(NC(=O)C4(C(=O)Nc5ccc(F)cc5)CC4)cc3F)ccnc2cc1OCCCN1CCOCC1 [Foretinib] (partner 0.25 µM): the relative viability was found to be 0.405.

Take `COCC1(CO)C(=O)C2CCN1CC2` (configuration not stated) [PRIMA-1MET] + Cc1nc(NC(=O)N2CCC[C@H]2C(N)=O)sc1-c1ccnc(C(C)(C)C(F)(F)F)c1 [Alpelisib] (partner 2 µM): the relative viability amounted to 0.109.

The next experiment relates to SW 1573. The experiment is described as above. The note with it: first compound 0.2 µM. A digest of the protocol:
as §1
As for `COCC1(CO)C(=O)C2CCN1CC2` (configuration not stated) [PRIMA-1MET] + CS(=O)(=O)N1CCN(Cc2cc3nc(-c4cccc5[nH]ncc45)nc(N4CCOCC4)c3s2)CC1 [Pictilisib] (partner 1 µM), the relative viability is 0.463.

`COCC1(CO)C(=O)C2CCN1CC2` (configuration not stated) [PRIMA-1MET] + CS(=O)(=O)CCNCc1ccc(-c2ccc3ncnc(Nc4ccc(OCc5cccc(F)c5)c(Cl)c4)c3c2)o1 [Lapatinib] (partner 2 µM): the relative viability was found to be 1.26.

Turning to `COCC1(CO)C(=O)C2CCN1CC2` (configuration not stated) [PRIMA-1MET] + C[C@]1(O)C[C@@H](c2nc(-c3ccc4ccc(-c5ccccc5)nc4c3)c3c(N)nccn32)C1 [Linsitinib] (partner 1 µM), the relative viability is 0.779.

In the case of `COCC1(CO)C(=O)C2CCN1CC2` (configuration not stated) [PRIMA-1MET] + COc1cc2c(Oc3ccc(NC(=O)C4(C(=O)Nc5ccc(F)cc5)CC4)cc3F)ccnc2cc1OCCCN1CCOCC1 [Foretinib] (partner 0.25 µM), the relative viability was 1.36.

In the case of `COCC1(CO)C(=O)C2CCN1CC2` (configuration not stated) [PRIMA-1MET] + Cc1nc(NC(=O)N2CCC[C@H]2C(N)=O)sc1-c1ccnc(C(C)(C)C(F)(F)F)c1 [Alpelisib] (partner 2 µM), the relative viability came to 0.845.

The experiment is the same for the next values; noted with them: first compound 0.6325 µM.
Turning to `COCC1(CO)C(=O)C2CCN1CC2` (configuration not stated) [PRIMA-1MET] + CS(=O)(=O)N1CCN(Cc2cc3nc(-c4cccc5[nH]ncc45)nc(N4CCOCC4)c3s2)CC1 [Pictilisib] (partner 1 µM), the relative viability was found to be 0.409.

In the case of `COCC1(CO)C(=O)C2CCN1CC2` (configuration not stated) [PRIMA-1MET] + CS(=O)(=O)CCNCc1ccc(-c2ccc3ncnc(Nc4ccc(OCc5cccc(F)c5)c(Cl)c4)c3c2)o1 [Lapatinib] (partner 2 µM), the relative viability was determined as 1.04.

As to `COCC1(CO)C(=O)C2CCN1CC2` (configuration not stated) [PRIMA-1MET] + C[C@]1(O)C[C@@H](c2nc(-c3ccc4ccc(-c5ccccc5)nc4c3)c3c(N)nccn32)C1 [Linsitinib] (partner 1 µM), the relative viability was 0.796.

`COCC1(CO)C(=O)C2CCN1CC2` (configuration not stated) [PRIMA-1MET] + COc1cc2c(Oc3ccc(NC(=O)C4(C(=O)Nc5ccc(F)cc5)CC4)cc3F)ccnc2cc1OCCCN1CCOCC1 [Foretinib] (partner 0.25 µM) yielded a relative viability of 0.404.

The compound `COCC1(CO)C(=O)C2CCN1CC2` (configuration not stated) [PRIMA-1MET] + Cc1nc(NC(=O)N2CCC[C@H]2C(N)=O)sc1-c1ccnc(C(C)(C)C(F)(F)F)c1 [Alpelisib] (partner 2 µM) registered a relative viability of 0.691.

The experiment is the same for the next values; noted with them: first compound 2 µM.
Consider `COCC1(CO)C(=O)C2CCN1CC2` (configuration not stated) [PRIMA-1MET] + CS(=O)(=O)N1CCN(Cc2cc3nc(-c4cccc5[nH]ncc45)nc(N4CCOCC4)c3s2)CC1 [Pictilisib] (partner 1 µM), for which the relative viability is 0.45.

The compound `COCC1(CO)C(=O)C2CCN1CC2` (configuration not stated) [PRIMA-1MET] + CS(=O)(=O)CCNCc1ccc(-c2ccc3ncnc(Nc4ccc(OCc5cccc(F)c5)c(Cl)c4)c3c2)o1 [Lapatinib] (partner 2 µM) returned a relative viability of 0.999.

Compound `COCC1(CO)C(=O)C2CCN1CC2` (configuration not stated) [PRIMA-1MET] + C[C@]1(O)C[C@@H](c2nc(-c3ccc4ccc(-c5ccccc5)nc4c3)c3c(N)nccn32)C1 [Linsitinib] (partner 1 µM) displayed a relative viability of 0.875.

`COCC1(CO)C(=O)C2CCN1CC2` (configuration not stated) [PRIMA-1MET] + COc1cc2c(Oc3ccc(NC(=O)C4(C(=O)Nc5ccc(F)cc5)CC4)cc3F)ccnc2cc1OCCCN1CCOCC1 [Foretinib] (partner 0.25 µM) had a relative viability of 0.777.

Consider `COCC1(CO)C(=O)C2CCN1CC2` (configuration not stated) [PRIMA-1MET] + Cc1nc(NC(=O)N2CCC[C@H]2C(N)=O)sc1-c1ccnc(C(C)(C)C(F)(F)F)c1 [Alpelisib] (partner 2 µM), for which the relative viability was 0.538.

Staying with this experiment, now noted: first compound 6.325 µM.
`COCC1(CO)C(=O)C2CCN1CC2` (configuration not stated) [PRIMA-1MET] + CS(=O)(=O)N1CCN(Cc2cc3nc(-c4cccc5[nH]ncc45)nc(N4CCOCC4)c3s2)CC1 [Pictilisib] (partner 1 µM) came in with a relative viability of 0.0446.

`COCC1(CO)C(=O)C2CCN1CC2` (configuration not stated) [PRIMA-1MET] + CS(=O)(=O)CCNCc1ccc(-c2ccc3ncnc(Nc4ccc(OCc5cccc(F)c5)c(Cl)c4)c3c2)o1 [Lapatinib] (partner 2 µM): the relative viability was 0.691.

`COCC1(CO)C(=O)C2CCN1CC2` (configuration not stated) [PRIMA-1MET] + C[C@]1(O)C[C@@H](c2nc(-c3ccc4ccc(-c5ccccc5)nc4c3)c3c(N)nccn32)C1 [Linsitinib] (partner 1 µM) gave a relative viability of 0.456.

With `COCC1(CO)C(=O)C2CCN1CC2` (configuration not stated) [PRIMA-1MET] + COc1cc2c(Oc3ccc(NC(=O)C4(C(=O)Nc5ccc(F)cc5)CC4)cc3F)ccnc2cc1OCCCN1CCOCC1 [Foretinib] (partner 0.25 µM), the relative viability amounted to 0.485.

Consider `COCC1(CO)C(=O)C2CCN1CC2` (configuration not stated) [PRIMA-1MET] + Cc1nc(NC(=O)N2CCC[C@H]2C(N)=O)sc1-c1ccnc(C(C)(C)C(F)(F)F)c1 [Alpelisib] (partner 2 µM), for which the relative viability was determined as 0.355.

Still in this experiment, the particulars now being: first compound 20 µM.
As to `COCC1(CO)C(=O)C2CCN1CC2` (configuration not stated) [PRIMA-1MET] + CS(=O)(=O)N1CCN(Cc2cc3nc(-c4cccc5[nH]ncc45)nc(N4CCOCC4)c3s2)CC1 [Pictilisib] (partner 1 µM), the relative viability amounted to 0.0283.

The compound `COCC1(CO)C(=O)C2CCN1CC2` (configuration not stated) [PRIMA-1MET] + CS(=O)(=O)CCNCc1ccc(-c2ccc3ncnc(Nc4ccc(OCc5cccc(F)c5)c(Cl)c4)c3c2)o1 [Lapatinib] (partner 2 µM) displayed a relative viability of 0.0423.

In turn, `COCC1(CO)C(=O)C2CCN1CC2` (configuration not stated) [PRIMA-1MET] + C[C@]1(O)C[C@@H](c2nc(-c3ccc4ccc(-c5ccccc5)nc4c3)c3c(N)nccn32)C1 [Linsitinib] (partner 1 µM) came in with a relative viability of 0.0414.

As for `COCC1(CO)C(=O)C2CCN1CC2` (configuration not stated) [PRIMA-1MET] + COc1cc2c(Oc3ccc(NC(=O)C4(C(=O)Nc5ccc(F)cc5)CC4)cc3F)ccnc2cc1OCCCN1CCOCC1 [Foretinib] (partner 0.25 µM), the relative viability was 0.0333.

Consider `COCC1(CO)C(=O)C2CCN1CC2` (configuration not stated) [PRIMA-1MET] + Cc1nc(NC(=O)N2CCC[C@H]2C(N)=O)sc1-c1ccnc(C(C)(C)C(F)(F)F)c1 [Alpelisib] (partner 2 µM), for which the relative viability is 0.0324.
